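1) Cells in 96-well plates. 2) Compound, 48 h, 5 concentrations. 3) Linear interpolation between surrounding doses. 4) Unreached endpoint = highest concentration. At the GI50, growth is halved. TGI is the concentration that stops growth completely.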
Legend:
Assay in all cases: NCI tumour cell line growth inhibition, 48 h
SK-OV-3 ovarian = test system: SK-OV-3 ovarian
OVCAR-8 ovarian = test system: OVCAR-8 ovarian
TK-10 renal = test system: TK-10 renal
OVCAR-4 ovarian = test system: OVCAR-4 ovarian
U251 CNS = test system: U251 CNS
MOLT-4 leukemia = test system: MOLT-4 leukemia
OVCAR-5 ovarian = test system: OVCAR-5 ovarian
HL-60(TB) leukemia = test system: HL-60(TB) leukemia
NCI/ADR-RES ovarian = test system: NCI/ADR-RES ovarian

| SMILES | GI50 (SK-OV-3 ovarian) [µM] | TGI (SK-OV-3 ovarian) [µM] | GI50 (OVCAR-8 ovarian) [µM] | TGI (OVCAR-8 ovarian) [µM] | GI50 (TK-10 renal) [µM] | TGI (TK-10 renal) [µM] | GI50 (OVCAR-4 ovarian) [µM] | TGI (OVCAR-4 ovarian) [µM] | GI50 (U251 CNS) [µM] | TGI (U251 CNS) [µM] | GI50 (MOLT-4 leukemia) [µM] | TGI (MOLT-4 leukemia) [µM] | GI50 (OVCAR-5 ovarian) [µM] | TGI (OVCAR-5 ovarian) [µM] | GI50 (HL-60(TB) leukemia) [µM] | TGI (HL-60(TB) leukemia) [µM] | GI50 (NCI/ADR-RES ovarian) [µM] | TGI (NCI/ADR-RES ovarian) [µM] |
| --- | --- | --- | --- | --- | --- | --- | --- | --- | --- | --- | --- | --- | --- | --- | --- | --- | --- | --- |
| CS(=O)(=O)c1ccc(-n2nc(C(F)(F)F)cc2OC2CCCC2)cc1 | 51.8 | > 100 | 43.8 | > 100 | 36.9 | 93.9 | 30.3 | > 100 | 22.1 | 75 | 35.9 | > 100 | > 100 | > 100 | 24 | 59.3 | 25 | 81.8 |
| Cc1ccc(C(=O)NC(C)C)cc1-c1ccc(C(=O)NCC2CC2)cc1 | > 25 | > 25 | > 25 | > 25 | > 25 | > 25 | > 25 | > 25 | > 25 | > 25 | > 25 | > 25 | > 25 | > 25 | > 25 | > 25 | > 25 | > 25 |
| CC/C=C\C[C@H](F)C/C=C1/C(=O)C=C[C@@H]1C/C=C\CCCC(=O)O | 12.6 | > 32.5 | 1.21 | 5.71 | 12.2 | 27.4 | 7.76 | > 32.5 | 4.01 | 8.94 | 1.14 | 12 | 8.18 | 21 | 3.41 | 16.8 | 6.78 | > 32.5 |
| CCCCCCCC(=O)OCC/C=C/C1OC1C1OC(=O)/C=C\C=C\c2nc(oc2C)/C=C(/C)CCC2OC2C1OC(=O)NC(C)=O (centres undefined) | 0.0643 | 1.33 | 0.028 | 0.826 | 0.0391 | 0.232 | 0.0766 | 2.21 | 0.0497 | 3.11 | 0.047 | 1.81 | 0.0193 | 0.104 | 0.114 | 2.07 | 0.165 | 1.88 |
| COc1ccc2c(c1)CCCN2c1c2ccccc2nc2ccccc12 | 0.652 | > 100 | 0.481 | > 100 | 3.38 | > 100 | 0.812 | > 100 | 0.379 | > 100 | 0.4 | > 100 | 0.544 | > 100 | 0.298 | 1.09 | 0.275 | 0.771 |
| COc1ccc(-c2onc(N)c2-c2cc(OC)c3c(c2)OCO3)cc1 | 3.79 | 22.6 | 4.22 | > 100 | 8.49 | > 100 | 13.6 | > 96 | 2.79 | > 26.1 | 1.93 | > 65.5 | 6.74 | > 94 | 1.87 | 7.53 | 0.947 | > 21.8 |
| O=C(Nc1ccncc1)C(=O)c1cn(S(=O)(=O)c2cccc(F)c2)c2ccccc12 | 20.3 | 76.5 | 5.21 | > 100 | 15.7 | > 100 | 5.09 | > 100 | 4.38 | > 100 | 4.18 | > 100 | > 100 | > 100 | 3.36 | > 100 | 1.16 | 4.66 |
| O=C(O)/C=C(\c1nc2ccc([N+](=O)[O-])cc2[nH]1)c1cc(Cl)ccc1O | 2.44 | 11.8 | 3.28 | > 100 | 4.11 | 15.4 | 2.72 | 36.6 | 3.21 | 19.2 | 2.26 | 9.7 | 5.29 | 43.3 | 2.42 | 30.4 | 2.71 | > 100 |
| Cc1cc2c(cc1Cl)SC1=NN(C)S(=O)N1S2(=O)=O (centres undefined) | > 100 | > 100 | > 100 | > 100 | > 100 | > 100 | > 100 | > 100 | > 100 | > 100 | > 100 | > 100 | > 100 | > 100 | > 100 | > 100 | > 100 | > 100 |
| C[N+]1=C(/C=C/c2ccc(O)c3ncccc23)C(C)(C)c2ccccc21 | 2.76 | 12 | 3.55 | > 100 | 3.43 | 14.9 | 3.12 | 17.2 | 2.4 | 17.1 | 3.14 | > 100 | 2.42 | 12.6 | 2.73 | 8.04 | 0.634 | 6.08 |
| Nc1nc2c(nnn2C2CC(O)C(CO)O2)c(=O)[nH]1 (centres undefined) | 0.937 | > 23.4 | 3.71 | > 100 | > 100 | > 100 | 11.5 | > 100 | 9.66 | > 100 | 2.61 | > 53 | 26.2 | > 100 | 1.15 | > 38.1 | 3.08 | > 100 |
| O=C1CCC(N2C(=O)c3ccccc3C2=O)C(=O)N1CO (centres undefined) | > 100 | > 100 | > 100 | > 100 | > 100 | > 100 | > 100 | > 100 | 90.8 | > 100 | 36.2 | > 100 | > 100 | > 100 | 32.2 | 89.5 | > 100 | > 100 |
| O=C(O)CCNC1CCCCC1 | > 100 | > 100 | > 100 | > 100 | > 100 | > 100 | > 100 | > 100 | > 100 | > 100 | > 100 | > 100 | > 100 | > 100 | > 100 | > 100 | > 100 | > 100 |

Reference: PubChem BioAssay (NCI)
